Measured values reported in patent US8497382B2, “Carboxylic acid derivative containing thiazole ring and pharmaceutical use thereof” (Mitsubishi Tanabe Pharma Corporation, priority 2008, dated 2013).

How the values were obtained:
[1] = test system: high cholesterol diet-treated rat; experiment: Influence on serum lipid of high cholesterol diet-treated rat; assay type: in vivo, SD rats; settings: once a day for 5 days, high cholesterol diet rats
Experimental: 2) Influence on Serum Lipid of High Cholesterol Diet-Treated Rat
8-week-old male SD rats (manufactured by SEAC Yoshitomi, Ltd.) were raised on a standard diet CE-2 (manufactured by Japan Clea, Inc.) added with 1% cholesterol, 2% olive oil and 0.2% cholic acid, from one week before test compound administration to the last day of the administration. A test compound and a control compound (GW-9578) were dissolved or suspended in 1% ethanol and 0.05% Tween80 (final concentration), and 0.5% hydroxypropylmethyl cellulose (HPMC) was added to adjust to a given concentration. The prepared solution was orally administered once a day for 5 days. After administration for 5 days, blood samples were collected from the jugular vein under non-fasting condition and blood lipid was measured by an enzyme method. The lowering rate was calculated by determining the rate of a value obtained by subtracting the average blood TG (or average blood TC) of a drug administration group from the average blood triglyceride (TG) (or average blood total cholesterol (TC)) of a vehicle administration group, to the average blood TG (or average blood TC) of the vehicle administration group.

normal rats = experiment: Blood triglyceride (TG)-lowering action in normal rats; assay type: in vivo; settings: normal male SD rats; for TG lowering rate: p.o., once a day for 4 days, non-fasting; for TG-lowering action: 0.01 mg/kg
Experimental: 1) Blood Triglyceride (TG)-Lowering Action in Normal Rats
7 to 9-week-old male SD rats (manufactured by SEAC Yoshitomi, Ltd.) were used for the test. A test compound and a control compound (GW-9578: J. Med. Chem. 1999, 42, 3785-3788) were dissolved or suspended in 1% ethanol, 0.05% Tween80 (final concentration), and 0.5% hydroxypropylmethyl cellulose (HPMC) was added to adjust to a given concentration. The prepared solution was orally administered once a day for 4 days. After administration for 4 days, blood samples were collected from the jugular vein under non-fasting condition and blood TG was measured by an enzyme method. The lowering rate was calculated by determining the rate of a value obtained by subtracting the average blood TG of a drug administration group from the average blood TG of a vehicle administration group, to the average blood TG of the vehicle administration group.

[2] = target: T1, Human Peroxisome Proliferator-Activated Receptor (PPAR)α (Homo sapiens, UniProt Q07869); experiment: Transactivation test for human PPARα (GAL4-hPPARαLBD luciferase reporter in CV-1 cells); assay type: cell-based; settings: for EC50: CV-1 cells, GAL4-hPPARαLBD, luciferase activity after 24 hr, read-out: transactivation action (EC50, nmol/l)
T1 construct: expressed in transfected cells
T1 sequence (Q07869 239-466 limits assumed): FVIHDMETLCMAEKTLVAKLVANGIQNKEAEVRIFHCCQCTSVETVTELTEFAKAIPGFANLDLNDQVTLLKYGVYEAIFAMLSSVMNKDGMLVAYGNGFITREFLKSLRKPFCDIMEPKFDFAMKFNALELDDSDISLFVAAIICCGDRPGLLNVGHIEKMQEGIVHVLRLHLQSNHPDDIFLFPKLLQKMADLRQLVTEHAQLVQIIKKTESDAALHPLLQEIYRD
Excerpt: Transactivation Test for Human Peroxisome Proliferator-Activated Receptor (PPAR)α
CV-1 cells (CCL-70, manufactured by Dainippon Pharma Co., Ltd.) cultured in Dulbecco's Modified Eagle Medium (DMEM) containing 10% fetal bovine serum (FBS) were transfected, using Lipofectamine 2000 (manufactured by Invitrogen), with pBIND vector (manufactured by Promega) that expresses a fusion protein of a DNA binding region of a yeast transcription factor (GAL4) and a human PPARα ligand binding region (GAL4-hPPARαLBD, manufactured based on Diabetes 47: 1841-1847, 1998), and an internal standard renilla luciferase, and GAL4 responsive TK vector that expresses reporter firefly luciferase (manufactured by Promega). 24 hr later, the medium was changed to a serum free medium containing a test compound, and the luciferase activity after 24 hr was measured.

[3] = Metabolizing isoform identification test (oxidative metabolism by microsome), human liver microsome; assay type: in vitro ADME; settings: for oxidative metabolism by human liver microsome: 14C-labeled test compound 2 μmol/L, 0.5 mg protein/mL, 37° C., 20 min
Experimental: (§1) Metabolizing Isoform Identification Test (Oxidative Metabolism by Microsome)
(§2) As a reaction mixture for the CYP isoform identification, a reaction mixture containing microsome [^14C-labeled test compound (2 μmol/L), microsome (human liver microsome at 0.5 mg protein/mL or microsome expressing CYP at 50 pmol CYP/mL (Control microsome, CYP1A2, CYP2A6, CYP2B6, CYP2C8, CYP2C9, CYP2C19, CYP2D6, CYP2E1 or CYP3A4)), EDTA (0.05 mmol/L) and Na—K phosphate buffer (pH 7.4, 0.1 mol/L)] was prepared and, after preincubation at 37° C. for 5 min, a solution of the NADPH generating system [β-NADP+ (0.5 mmol/L), glucose-6-phosphate (G-6-P) (5.0 mmol/L), magnesium chloride (5.0 mmol/L) and G-6-P DH (1.0 unit/mL)] was added to start the reaction. For CYP expressing microsomes for CYP2A6 and CYP2C9, Tris-HCl buffer (pH 7.4, 0.1 mol/L) was used instead of Na—K phosphate buffer (pH 7.4, 0.1 mol/L).
(§3) These reaction mixtures were incubated at 37° C. for 20 min, and a 3-fold amount of ethanol was added to the reaction mixtures to terminate the reaction. To the reaction mixture was added a predetermined amount of an unlabeled metabolite mixed solution, and the mixture was stirred (about 5 min), centrifuged (4° C., 3000 rpm, 10 min) and the supernatant was collected. To the residue was added a 3-fold amount of ethanol relative to the reaction mixture, and the mixture was stirred (about 5 min), and centrifuged (4° C., 3000 rpm, 10 min). The supernatant was collected and combined with the supernatant collected earlier, and the solvent was evaporated under a nitrogen stream at about 40° C. To the residue was added a predetermined amount of HPLC mobile phase or suitable solvent, and the mixture was stirred and used as an HPLC sample. The sample was injected into HPLC and a radiochromatogram was obtained. From the obtained radiochromatogram, the metabolism activity and metabolite generating activity of the ^14C-labeled test compound was calculated.

CYP2C9 [4] = target: T2, CYP2C9 (Homo sapiens, UniProt P11712); experiment: Investigation using an inhibitor (Sulfaphenazole) in human liver microsome; assay type: in vitro ADME; parameters: human liver microsome (0.5 mg protein/mL); from tissue; host or cells: human liver microsome; settings: Sulfaphenazole 10 μmol/L, test compound 0.2 and 2 μmol/L
Experimental: On the other hand, as a reaction mixture for studying inhibitors, [^14C-labeled test compound (0.2 μmol/L and 2 μmol/L), inhibitor solution (Sulfaphenazole) (10 μmol/L), human liver microsome (0.5 mg protein/mL), EDTA (0.05 mmol/L) and Na—K phosphate buffer (pH 7.4, 0.1 mol/L)] was prepared and, after preincubation at 37° C. for 5 min, a solution of the NADPH generating system was added thereto to start the reaction.
as §3, with “To the residue was added a predetermined amount of HPLC mobile phase or suitable solvent, and the mixture was stirred and used as an HPLC sample. The sample was injected into HPLC and a radiochromatogram was obtained.” left out

CYP2C19 = CYP2C19 (Homo sapiens, UniProt P33261); experiment: Metabolizing isoform identification test, microsome expressing CYP2C19; assay type: in vitro ADME; settings: microsome expressing CYP at 50 pmol CYP/mL, 2 μmol/L, 37° C., 20 min
Experimental: as §1, §2
(§4) These reaction mixtures were incubated at 37° C. for 20 min, and a 3-fold amount of ethanol was added to the reaction mixtures to terminate the reaction. To the reaction mixture was added a predetermined amount of an unlabeled metabolite mixed solution, and the mixture was stirred (about 5 min), centrifuged (4° C., 3000 rpm, 10 min) and the supernatant was collected. […] From the obtained radiochromatogram, the metabolism activity and metabolite generating activity of the ^14C-labeled test compound was calculated.

CYP2C9 [5] = target: T2, CYP2C9; experiment: Metabolizing isoform identification test, microsome expressing CYP2C9; assay type: in vitro ADME; settings: microsome expressing CYP at 50 pmol CYP/mL, 2 μmol/L, 37° C., 20 min
Experimental: as §1, §2, §4

CYP3A4 = CYP3A4 (Homo sapiens, UniProt P08684); experiment: Metabolizing isoform identification test, microsome expressing CYP3A4; assay type: in vitro ADME; settings: microsome expressing CYP at 50 pmol CYP/mL, 2 μmol/L, 37° C., 20 min
Experimental: as §1, §2, §4

CYP2C8 = target: T3, CYP2C8 (Homo sapiens, UniProt P10632); experiment: Metabolizing isoform identification test, microsome expressing CYP2C8; assay type: in vitro ADME; settings: microsome expressing CYP at 50 pmol CYP/mL, 2 μmol/L, 37° C., 20 min
T3 sequence (P10632 1-490): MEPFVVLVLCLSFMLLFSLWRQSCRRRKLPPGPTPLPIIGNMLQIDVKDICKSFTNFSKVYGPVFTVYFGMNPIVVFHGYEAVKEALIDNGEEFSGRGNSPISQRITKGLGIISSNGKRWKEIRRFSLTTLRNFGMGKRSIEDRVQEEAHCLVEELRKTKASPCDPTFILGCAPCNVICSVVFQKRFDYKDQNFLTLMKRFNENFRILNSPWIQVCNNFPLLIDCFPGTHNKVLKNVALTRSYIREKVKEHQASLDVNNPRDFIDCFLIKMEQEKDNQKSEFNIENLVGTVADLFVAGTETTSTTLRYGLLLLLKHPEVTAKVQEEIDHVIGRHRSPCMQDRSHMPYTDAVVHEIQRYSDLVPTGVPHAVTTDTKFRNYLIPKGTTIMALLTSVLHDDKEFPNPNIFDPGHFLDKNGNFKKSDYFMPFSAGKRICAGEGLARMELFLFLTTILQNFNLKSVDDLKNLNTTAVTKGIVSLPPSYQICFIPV
Experimental: as §1, §2, §4

T2 sequence (P11712 whole entry): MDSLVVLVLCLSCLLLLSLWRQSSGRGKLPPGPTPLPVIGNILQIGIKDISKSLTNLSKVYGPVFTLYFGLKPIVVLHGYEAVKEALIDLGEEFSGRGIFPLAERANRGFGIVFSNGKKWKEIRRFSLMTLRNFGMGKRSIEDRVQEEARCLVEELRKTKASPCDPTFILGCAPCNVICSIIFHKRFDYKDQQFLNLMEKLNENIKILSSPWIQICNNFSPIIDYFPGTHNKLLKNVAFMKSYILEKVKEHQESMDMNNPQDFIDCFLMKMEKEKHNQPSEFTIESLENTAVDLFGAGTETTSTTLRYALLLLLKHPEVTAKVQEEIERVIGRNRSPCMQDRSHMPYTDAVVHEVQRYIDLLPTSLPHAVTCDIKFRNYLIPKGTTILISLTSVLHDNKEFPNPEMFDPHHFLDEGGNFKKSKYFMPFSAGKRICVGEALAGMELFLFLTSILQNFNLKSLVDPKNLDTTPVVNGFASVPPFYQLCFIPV
CYP2C19, sequence (P33261 whole entry, canonical isoform): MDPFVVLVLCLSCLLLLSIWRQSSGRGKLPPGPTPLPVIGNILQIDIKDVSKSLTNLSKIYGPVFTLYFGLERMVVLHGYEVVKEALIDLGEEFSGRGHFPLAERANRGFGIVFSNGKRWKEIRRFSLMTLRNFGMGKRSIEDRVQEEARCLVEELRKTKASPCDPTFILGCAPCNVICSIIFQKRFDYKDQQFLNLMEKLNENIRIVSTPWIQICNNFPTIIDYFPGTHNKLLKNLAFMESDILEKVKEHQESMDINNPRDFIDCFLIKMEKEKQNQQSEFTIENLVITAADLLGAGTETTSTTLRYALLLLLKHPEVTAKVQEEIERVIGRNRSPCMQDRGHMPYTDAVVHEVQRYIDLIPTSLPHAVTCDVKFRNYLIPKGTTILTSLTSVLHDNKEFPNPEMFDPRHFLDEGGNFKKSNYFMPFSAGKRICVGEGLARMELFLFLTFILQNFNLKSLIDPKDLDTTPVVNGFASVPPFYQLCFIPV
CYP3A4, sequence (P08684 whole entry, canonical isoform): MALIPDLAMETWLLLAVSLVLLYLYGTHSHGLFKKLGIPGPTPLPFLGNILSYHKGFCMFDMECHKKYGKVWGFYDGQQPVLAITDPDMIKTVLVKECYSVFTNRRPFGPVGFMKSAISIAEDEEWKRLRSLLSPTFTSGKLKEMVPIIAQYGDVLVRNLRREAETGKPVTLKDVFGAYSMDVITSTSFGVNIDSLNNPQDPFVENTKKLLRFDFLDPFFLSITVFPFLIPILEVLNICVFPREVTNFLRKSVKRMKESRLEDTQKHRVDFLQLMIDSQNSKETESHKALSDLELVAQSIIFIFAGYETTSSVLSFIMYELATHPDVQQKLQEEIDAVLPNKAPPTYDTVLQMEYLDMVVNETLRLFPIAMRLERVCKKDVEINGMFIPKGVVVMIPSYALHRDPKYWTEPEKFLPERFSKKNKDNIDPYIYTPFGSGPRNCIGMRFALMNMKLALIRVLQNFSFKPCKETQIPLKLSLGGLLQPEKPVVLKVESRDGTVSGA

Row | EC50 [2] | oxidative metabolism by human liver microsome [3] | SMILES | TG lowering rate (%, 0.3 mg/kg, p.o.) TG ([1]; first column) | TG lowering rate (%, 0.3 mg/kg, p.o.) TG ([1]; second column) | TG lowering rate (normal rats; 0.3 mg/kg) | TG-lowering action (normal rats) | other results
1 | 8.4 nmol/L |  | CC(C)(Sc1nc(C(O)COc2ccc(-c3ccc(F)cc3)cc2)cs1)C(=O)O (stereo not shown) [Example 2, 2-[(4-{2-[(4′-fluorobiphenyl-4-yl)oxy]-1-hydroxyethyl}-1,3-thiazol-2-yl)thio]-2-methylpropionic acid] | 38% | 34% | 56% |  | 
2 | 4.7 nmol/L |  | CC(C)(Sc1nc(C(=O)COc2ccc(-c3ccc(F)cc3)cc2)cs1)C(=O)O [Example 3, 2-[(4-{[(4′-fluorobiphenyl-4-yl)oxy]acetyl}-1,3-thiazol-2-yl)thio]-2-methylpropionic acid] |  |  |  |  | 
3 | 3.1 nmol/L | could not be confirmed | CC(C)(Sc1nc([C@H](O)COc2ccc(-c3ccc(F)cc3)cc2)cs1)C(=O)O [Example 12, 2-[(4-{(1S)-2-[(4′-fluorobiphenyl-4-yl)oxy]-1-hydroxyethyl}-1,3-thiazol-2-yl)thio]-2-methylpropionic acid] |  |  |  | 15.1% | TG lowering rate (normal rats; 0.1 mg/kg): 52%; involvement in the metabolism by CYP ([3]; summary statement in description): not involved in the metabolism by CYP; transcription activation activity relative to compound A (times stronger) ([2]; compared with compound A (10.41 nmol/l)): ≥ 3 times
4 |  |  | CCCCCCCN(CCc1ccc(SC(C)(C)C(=O)O)cc1)C(=O)Nc1ccc(F)cc1F [GW-9578] | 30-50% | 30-50% | 50-60% |  | 
5 | 10.4 nmol/L | observed | CC(C)(Sc1nc(CCOc2ccc(-c3ccc(F)cc3)cc2)cs1)C(=O)O [compound A, 2-[(4-{2-[(4′-fluorobiphenyl-4-yl)oxy]ethyl}-1,3-thiazol-2-yl)thio]-2-methylpropionic acid] |  |  |  | 0.7% | enzyme mainly involved in the metabolism (investigation using the inhibitor) (CYP2C9 [4]): CYP2C9; metabolism by CYP2C19 (CYP2C19): also metabolized; metabolism by CYP2C9 (CYP2C9 [5]): mainly metabolized by CYP2C9; metabolism by CYP3A4 (CYP3A4): also metabolized; metabolism by CYP2C8 (CYP2C8): also metabolized
